ChEMBL document CHEMBL1212698, “A forward chemical genetic screen reveals an inhibitor of the Mre11-Rad50-Nbs1 complex” (Nat Chem Biol, 2008)
The source made the active and inactive calls. The rule behind the calls is not given here.

Columns and labels:
Xenopus laevis [1] = species on record: Xenopus laevis; assay: (§1) Inhibition of DNA double strand break-induced ataxia telangiectasia mutated activation in Xenopus laevis extract assessed as inhibition of H2AX phosphorylation
Xenopus laevis [2] = species on record: Xenopus laevis; assay: Inhibition of monomeric ataxia telangiectasia mutated catalytic activity at 50 uM
Homo sapiens = species on record: Homo sapiens; assay: Inhibition of human Mre11/Rad50/Nbs1-dependent DNA tethering assessed as Rad50-associated adenylate kinase activity at 0.05 to 0.8 mM
Xenopus laevis [3] = species on record: Xenopus laevis; assay: Inhibition of ataxia telangiectasia mutated-dependent Nbs1 phosphorylation in Xenopus laevis extract assessed as electrophoretic mobility by Western blot analysis
TOSA4 = assay: Inhibition of gene conversion in human TOSA4 cells transfected with I-Sec1 expressing plasmid assessed as decrease in GFP-positive cells at 25 uM after 24 hrs by gene conversion assay; format: functional, cell-based
HEK293 [4] = assay: Cytotoxicity against human HEK293 cells at 50 uM after 24 hrs; format: cell-based; settings: hek293, 24 h
Xenopus laevis [5] = species on record: Xenopus laevis; assay: Inhibition of Mer11 binding to streptavidin-bound biotinylated DNA in Xenopus laevis extract up to 1 mM
HEK293 [6] = assay: Cytotoxicity against human HEK293 cells at 25 uM after 24 hrs; format: cell-based; settings: hek293, 24 h
Xenopus laevis [7] = species on record: Xenopus laevis; assay: Inhibition of ataxia telangiectasia mutated binding to streptavidin-bound biotinylated DNA in Xenopus laevis extract up to 1 mM
Xenopus laevis [8] = species on record: Xenopus laevis; assay: Induction of FLAG-tagged Mre11/Rad50/Nbs1 dissociation in Xenopus laevis extract at 100 uM
U2OS [9] = assay: Cell cycle arrest in human U2OS cells assessed as accumulation at G2 phase at 100 uM after 24 hrs by FACS analysis; format: functional, cell-based
Xenopus laevis [10] = species on record: Xenopus laevis; assay: Inhibition of ataxia telangiectasia mutated-dependent Chk2 phosphorylation in Xenopus laevis extract assessed as electrophoretic mobility by Western blot analysis
[11] = Cell cycle arrest in human TOSA4 cells assessed as accumulation at G2 phase at 50 uM after 24 hrs by FACS analysis; format: functional, cell-based
[12] = Inhibition of dimeric recombinant ataxia telangiectasia mutated activation in Xenopus laevis extract in presence of DNA, Mre11/Rad50/Nbs1
[13] = target: T1, Double-strand break repair protein MRE11 (Homo sapiens) (UniProt P49959); assay: Inhibition of human Mre11 nuclease activity at 100 uM
T1 sequence (whole entry): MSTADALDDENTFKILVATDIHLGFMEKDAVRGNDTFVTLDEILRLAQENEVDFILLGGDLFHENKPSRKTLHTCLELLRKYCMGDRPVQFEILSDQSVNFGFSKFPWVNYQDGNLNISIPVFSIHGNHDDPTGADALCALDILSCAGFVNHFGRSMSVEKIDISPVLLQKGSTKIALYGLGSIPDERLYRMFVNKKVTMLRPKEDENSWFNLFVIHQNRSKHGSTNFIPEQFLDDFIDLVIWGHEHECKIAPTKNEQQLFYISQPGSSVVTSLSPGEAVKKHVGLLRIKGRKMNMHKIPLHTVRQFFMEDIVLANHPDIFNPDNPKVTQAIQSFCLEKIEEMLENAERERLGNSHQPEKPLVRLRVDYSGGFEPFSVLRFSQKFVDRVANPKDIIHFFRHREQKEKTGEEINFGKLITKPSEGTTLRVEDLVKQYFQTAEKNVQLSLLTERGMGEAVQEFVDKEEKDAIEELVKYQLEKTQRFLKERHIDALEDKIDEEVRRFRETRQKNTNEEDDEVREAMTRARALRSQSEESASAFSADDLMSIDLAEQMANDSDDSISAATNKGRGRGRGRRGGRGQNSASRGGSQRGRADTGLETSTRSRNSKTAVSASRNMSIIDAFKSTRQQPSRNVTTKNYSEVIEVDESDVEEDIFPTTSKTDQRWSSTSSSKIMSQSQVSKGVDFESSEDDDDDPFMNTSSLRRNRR

Xenopus laevis [14] = species on record: Xenopus laevis; assay: Inhibition of DNA double strand break-induced Mre11/Rad50/Nbs1-dependent ATM autophosphorylation at Ser1981
U2OS [15] = assay: Inhibition of 10 Gy irradiation-induced G2/M check point in human U2OS cells using G2 synchronized cells at 25 uM after 24 hrs by FACS analysis; format: functional, cell-based
[16] = Cell cycle arrest in human TOSA4 cells assessed as accumulation at G2 phase at 100 uM after 24 hrs by FACS analysis; format: functional, cell-based
Xenopus laevis [17] = species on record: Xenopus laevis; assay: Stimulation of Mre11/Rad50/Nbs1-dependent DNA tethering in Xenopus laevis extract at 100 uM
[18] = target: T1, Double-strand break repair protein MRE11 (Homo sapiens); assay: Inhibition of human Mre11 ExoIII nuclease activity at 100 uM
Nucleic Acid = assay: Inhibition of DNA tethering in Xenopus laevis extract at 10 uM; format: nucleic-acid assay
[19] = as §1

SMILES: O=c1cc(-c2ccccc2)[nH]c(=S)[nH]1
- inhibition (Xenopus laevis [1]): inactive

SMILES: N=C1NC(=O)/C(=C/c2ccc(O)cc2)S1 [MIRIN]
- inhibition (Xenopus laevis [2]): inactive
- Activity (Homo sapiens): inactive
- inhibition (Xenopus laevis [3]): Active
- inhibition (TOSA4): Active
- Activity (HEK293 [4]): Non-toxic
- inhibition (Xenopus laevis [5]): inactive
- Activity (HEK293 [6]): Non-toxic
- inhibition (Xenopus laevis [7]): inactive
- Activity (Xenopus laevis [8]): inactive
- Activity (U2OS [9]): Active
- inhibition (Xenopus laevis [10]): Active
- Activity [11]: Active
- IC50 [12]: 12 µM
- inhibition [13]: Active
- inhibition (Xenopus laevis [14]): Active
- inhibition (U2OS [15]): Active
- Activity [16]: Active
- Activity (Xenopus laevis [17]): Active
- inhibition [18]: inactive
- inhibition (Nucleic Acid): inactive
- IC50 [19]: 66 µM
